According to patent US20230255975A1, “METHODS FOR TREATING CANCER WITH COMBINATION THERAPIES” (Celgene Corporation, priority 2020, published 2023):

Assays:
[1] = test system: KMS11 cell line; assay: Proliferation assay; assay type: cell-based; details: Homo sapiens, KMS-11, 1q amp 6-8×, BRD4/BET inhibition
Experimental: (§1) Proliferation and viability assays: Cell growth curves were determined by monitoring the viability of cells with Trypan blue exclusion on a Vi-Cell-XR (Becton Dickinson, Franklin Lakes, N.J., USA). Proliferation assays were performed in triplicate at least three times (n=3) using (3H)-thymidine incorporation. All data were plotted and analyzed using GraphPad Prism 7 (GraphPad Software, La Jolla, Calif., USA) software, represented as the mean with an error determined as ±s.d.

[2] = test system: U266 cell line; assay: Proliferation assay; assay type: cell-based; details: Homo sapiens, U-266, 1q amp 3×, BRD4/BET inhibition, read-out: IC50
Experimental: as §1

[3] = test system: DF15/PR cell line; assay: Proliferation assay; assay type: cell-based; details: 1q amp 3×, BRD4/BET inhibition
Experimental: as §1

[4] = test system: MM1.S cell line; assay: Proliferation assay; assay type: cell-based; details: Homo sapiens, 1q amp 3×, BRD4/BET inhibition
Experimental: as §1

[5] = test system: H929 cell line; assay: Proliferation assay; assay type: cell-based; details: Homo sapiens, NCI-H929, 1q amp 3-4×, BRD4/BET inhibition, read-out: IC50
Experimental: as §1
(§2) Proliferation and viability assay. Cell growth curves were determined by monitoring the viability of cells with Trypan blue exclusion on a Vi-Cell-XR (Becton Dickinson, Franklin Lakes, N.J., USA). Cell lines were plated in triplicate in 96-well round-bottom plates with the indicated drug concentrations or knockdown cells. Proliferation assays were performed in triplicate at least three times (n=3) using either the WST-1 tetrazolium salt (Roche Applied Science) reagent used according to the manufacturer's specifications or by (3H)-thymidine incorporation as previously described (Bjorklund et al., Blood Cancer Journal 5, e354, 2015). All data were plotted and analyzed using GraphPad Prism 7 (GraphPad Software, La Jolla, Calif., USA) software, represented as the mean with an error determined as ±s.d.

[6] = test system: Mc-CAR cell line; assay: Proliferation assay; assay type: cell-based; details: McCAR; 1q amp normal; BRD4/BET inhibition; read-out: IC50
Experimental: as §1, §2

[7] = test system: CKS1B and E2F2 in MDMS8-like (DF15PR) cell line; assay: Immunoblot of CKS1B and E2F2 after BET inhibitors; assay type: cell-based; details: FIG. 10A
Source text: (§3) Effects of BRD4 inhibitors on CKS1B and E2F2 and their target genes. CKS1B and E2F2 have been enlisted as super-enhancer (SE) associated genes in MM (Loven, J., et al., Cell, 2013, 153(2): p. 320-34). In order to pharmacologically target CKS1B and E2F2, the BET inhibitors JQ1 and Compound A were utilized in MDMS8-like and H929 cell lines. […] BET inhibitors also promoted a decrease in Cereblon substrates, Ikaros, Aiolos and c-Myc levels. Further, an increase in the levels of P27 was observed, which is a negative regulator of CKS1B signaling. Immunofluorescence staining was performed to analyze the localization and expression of CKS1B and E2F2 in response to JQ1 and confirmed the decrease in their nuclear expression in MDMS8-like cells (data not shown). Since BET inhibitors mediate their changes mainly at transcript levels, transcript levels of CKS1B and E2F2 were analyzed in response to BET inhibitors. In both MDMS8-like and H929 cell lines, BET inhibitors promoted a decrease in transcript levels of CKS1B and E2F2 (FIG. 10C, FIG. 10D, FIG. 10E, and FIG. 10F). […] To ascertain the SE mediated regulation of CKS1B and E2F2, CDK7 inhibitors targeting SE-associated complexes in MM cell lines were utilized.

[8] = test system: CKS1B and E2F2 in H929 cell line; assay: Immunoblot of CKS1B and E2F2 after BET inhibitors; assay type: cell-based; details: FIG. 10B
Source text: as §3

[9] = test system: several MM cell lines; assay: Proliferation of MM cell lines with CDK7 inhibitor; assay type: cell-based; details: data not shown
Experimental: as §1
Effects of BRD4 inhibitors on CKS1B and E2F2 and their target genes. CKS1B and E2F2 have been enlisted as super-enhancer (SE) associated genes in MM (Loven, J., et al., Cell, 2013, 153(2): p. 320-34). In order to pharmacologically target CKS1B and E2F2, the BET inhibitors JQ1 and Compound A were utilized in MDMS8-like and H929 cell lines. […] BET inhibitors also promoted a decrease in Cereblon substrates, Ikaros, Aiolos and c-Myc levels. Further, an increase in the levels of P27 was observed, which is a negative regulator of CKS1B signaling. Immunofluorescence staining was performed to analyze the localization and expression of CKS1B and E2F2 in response to JQ1 and confirmed the decrease in their nuclear expression in MDMS8-like cells (data not shown). Since BET inhibitors mediate their changes mainly at transcript levels, transcript levels of CKS1B and E2F2 were analyzed in response to BET inhibitors. […]

[10] = test system: acute myeloid leukemia (AML); details: administered alone; cited from earlier work

Question: Which IC50 [1] does the source give for `Cc1sc2c(c1C)C(c1ccc(Cl)cc1)=N[C@@H](CC(=O)OC(C)(C)C)c1nnc(C)n1-2` [JQ1, (S)-tert-butyl 2-(4-(4-chlorophenyl)-2,3,9-trimethyl-6H-thieno[3,2-f][1,2,4]triazolo[4,3-a][1,4]diazepin-6-yl)acetate] here?
Answer: 36.2 nM

Question: What about the IC50 [2] of the same molecule?
Answer: 14.8 nM

Question: And the IC50 [3]?
Answer: 37.8 nM

Question: What about the IC50 [4] of the same molecule?
Answer: 15.2 nM

Question: And the IC50 [5]?
Answer: 51.7 nM

Question: And the IC50 [6]?
Answer: 83.5 nM

Question: And the “protein levels of CKS1B and E2F2” value [7]?
Answer: dose and time dependent decrease

Question: And the “protein levels of CKS1B and E2F2” value [8]?
Answer: dose and time dependent decrease

Question: With `CN(C)C/C=C/C(=O)Nc1ccc(C(=O)Nc2cccc(Nc3ncc(Cl)c(-c4c[nH]c5ccccc45)n3)c2)cc1` [THZ1] as the molecule, how does the proliferation [9] read?
Answer: potent decrease in proliferation

Question: For “CT-011: anti-PD-1 antibody, a humanized antibody”, which “response in treating acute myeloid leukemia (AML) at relapse” value [10] is on record?
Answer: failed to show response
